In paper PMC8037182, “Solvothermal Synthesis of Multiple Dihydropyrimidinones at a Time as Inhibitors of Eg5” (Molecules, 2021):

Columns and labels:
Hela cell line = assay: Cytotoxicity MTS assay, Hela cell line; type: cell-based; settings: for OD490 value, Mean / OD490 value, Well 1 / OD490 value, Well 2 / OD490 value, Well 3: Hela cell line, MTS; for IC50: MTS assay, 24 h exposure;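 as to OD490 value, Mean: blank control wells received 0.025% DMSO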;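 as to OD490 value, Well 1: blank control wells received 0.025% DMSO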;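 as to OD490 value, Well 2: blank control wells received 0.025% DMSO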;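 as to OD490 value, Well 3: blank control wells received 0.025% DMSO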
In short: (§1)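 MTS read-out (absorbance 490 nm after 2 h reagent at 37 °C) following 24 h compound exposure at 0.5–100 µM final, 0.025% DMSO as blank. Plated at 1000 cells/well and pre-incubated 24 h; IC50 derived by non-linear regression of viability against concentration, from three independent duplicate runs.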

T24 cell line = assay: Cytotoxicity MTS assay, T24 cell line; type: cell-based; settings: for IC50: MTS assay, 24 h exposure; for OD490 Mean / OD490 Well 1 / OD490 Well 2 / OD490 Well 3: T24 cell line, first assay;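 as to OD490 Mean: blank control wells received 0.025% DMSO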;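 as to OD490 Well 1: blank control wells received 0.025% DMSO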;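 as to OD490 Well 2: blank control wells received 0.025% DMSO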;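 as to OD490 Well 3: blank control wells received 0.025% DMSO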
In short: as §1

## CCOC(=O)c1c(C2NC(=O)NC(C)=C2C(=O)Nc2ccccc2)[nH]c(C(=O)OC)c1C (stereo not shown) [D10]
Hela cell line; 0.5μM, first assay
  OD490 value, Mean: 2.4433
  OD490 value, Well 1: 2.2781
  OD490 value, Well 2: 2.4004
  OD490 value, Well 3: 2.6514
Hela cell line; 0.5μM, second assay
  OD490 value, Mean: 2.6180
  OD490 value, Well 1: 2.6587
  OD490 value, Well 2: 2.4789
  OD490 value, Well 3: 2.7165
Hela cell line; 0.5μM, third assay
  OD490 value, Mean: 2.7318
  OD490 value, Well 1: 2.6365
  OD490 value, Well 2: 2.6647
  OD490 value, Well 3: 2.8942
Hela cell line; 1μM, first assay
  OD490 value, Mean: 2.5456
  OD490 value, Well 1: 2.4058
  OD490 value, Well 2: 2.5965
  OD490 value, Well 3: 2.6345
Hela cell line; 1μM, second assay
  OD490 value, Mean: 2.6802
  OD490 value, Well 1: 2.6241
  OD490 value, Well 2: 2.8523
  OD490 value, Well 3: 2.5641
Hela cell line; 1μM, third assay
  OD490 value, Mean: 2.6076
  OD490 value, Well 1: 2.6360
  OD490 value, Well 2: 2.5412
  OD490 value, Well 3: 2.6456
Hela cell line; 10μM, first assay
  OD490 value, Mean: 2.4164
  OD490 value, Well 1: 2.2701
  OD490 value, Well 2: 2.4384
  OD490 value, Well 3: 2.5408
Hela cell line; 10μM, second assay
  OD490 value, Mean: 2.3656
  OD490 value, Well 1: 2.3071
  OD490 value, Well 2: 2.3385
  OD490 value, Well 3: 2.4512
Hela cell line; 10μM, third assay
  OD490 value, Mean: 2.4636
  OD490 value, Well 1: 2.3685
  OD490 value, Well 2: 2.4635
  OD490 value, Well 3: 2.5587
Hela cell line; 25μM, first assay
  OD490 value, Mean: 2.2246
  OD490 value, Well 1: 1.9325
  OD490 value, Well 2: 2.3409
  OD490 value, Well 3: 2.4004
Hela cell line; 25μM, second assay
  OD490 value, Mean: 2.1531
  OD490 value, Well 1: 2.0147
  OD490 value, Well 2: 2.2032
  OD490 value, Well 3: 2.2414
Hela cell line; 25μM, third assay
  OD490 value, Mean: 2.1839
  OD490 value, Well 1: 2.1010
  OD490 value, Well 2: 2.1141
  OD490 value, Well 3: 2.3365
Hela cell line; 50μM, first assay
  OD490 value, Mean: 1.8479
  OD490 value, Well 1: 1.6416
  OD490 value, Well 2: 1.7737
  OD490 value, Well 3: 2.1285
Hela cell line; 50μM, second assay
  OD490 value, Mean: 1.7649
  OD490 value, Well 1: 1.7425
  OD490 value, Well 2: 1.7321
  OD490 value, Well 3: 1.8201
Hela cell line; 50μM, third assay
  OD490 value, Mean: 1.8099
  OD490 value, Well 1: 1.7845
  OD490 value, Well 2: 1.8032
  OD490 value, Well 3: 1.8420
Hela cell line; 100μM, first assay
  OD490 value, Mean: 1.6845
  OD490 value, Well 1: 1.6759
  OD490 value, Well 2: 1.7430
  OD490 value, Well 3: 1.6346
Hela cell line; 100μM, second assay
  OD490 value, Mean: 1.6082
  OD490 value, Well 1: 1.6324
  OD490 value, Well 2: 1.5024
  OD490 value, Well 3: 1.6898
Hela cell line; 100μM, third assay
  OD490 value, Mean: 1.7036
  OD490 value, Well 1: 1.6578
  OD490 value, Well 2: 1.6988
  OD490 value, Well 3: 1.7542
Hela cell line
  IC50: 108 µM
T24 cell line
  IC50: > 150 µM
T24 cell line; 0.5μM
  OD490 Mean: 1.3759
  OD490 Well 1: 1.3871
  OD490 Well 2: 1.3651
  OD490 Well 3: 1.3756
T24 cell line; 1μM
  OD490 Mean: 1.3764
  OD490 Well 1: 1.2835
  OD490 Well 2: 1.4515
  OD490 Well 3: 1.3943
T24 cell line; 10μM
  OD490 Mean: 1.4610
  OD490 Well 1: 1.3272
  OD490 Well 2: 1.6117
  OD490 Well 3: 1.4442
T24 cell line; 25μM
  OD490 Mean: 1.4209
  OD490 Well 1: 1.3594
  OD490 Well 2: 1.6346
  OD490 Well 3: 1.2686
T24 cell line; 50μM
  OD490 Mean: 1.2169
  OD490 Well 1: 1.1849
  OD490 Well 2: 1.3216
  OD490 Well 3: 1.1441
T24 cell line; 100μM
  OD490 Mean: 1.1356
  OD490 Well 1: 1.2013
  OD490 Well 2: 1.0672
  OD490 Well 3: 1.1383

## CCOC(=O)c1[nH]c(C2NC(=S)NC(C)=C2C(=O)OC)c(C(=O)OCC)c1C (stereo not shown) [D12]
Hela cell line; 0.5μM, first assay
  OD490 value, Mean: 2.4447
  OD490 value, Well 1: 2.5235
  OD490 value, Well 2: 2.4821
  OD490 value, Well 3: 2.3285
Hela cell line; 0.5μM, second assay
  OD490 value, Mean: 2.5426
  OD490 value, Well 1: 2.5366
  OD490 value, Well 2: 2.2547
  OD490 value, Well 3: 2.8365
Hela cell line; 0.5μM, third assay
  OD490 value, Mean: 2.6167
  OD490 value, Well 1: 2.6535
  OD490 value, Well 2: 2.5478
  OD490 value, Well 3: 2.6489
Hela cell line; 1μM, first assay
  OD490 value, Mean: 2.3871
  OD490 value, Well 1: 2.4815
  OD490 value, Well 2: 2.2707
  OD490 value, Well 3: 2.4090
Hela cell line; 1μM, second assay
  OD490 value, Mean: 2.5625
  OD490 value, Well 1: 2.5302
  OD490 value, Well 2: 2.5698
  OD490 value, Well 3: 2.5874
Hela cell line; 1μM, third assay
  OD490 value, Mean: 2.6475
  OD490 value, Well 1: 2.5896
  OD490 value, Well 2: 2.6985
  OD490 value, Well 3: 2.6543
Hela cell line; 10μM, first assay
  OD490 value, Mean: 2.6552
  OD490 value, Well 1: 2.5708
  OD490 value, Well 2: 2.6029
  OD490 value, Well 3: 2.7920
Hela cell line; 10μM, second assay
  OD490 value, Mean: 2.5779
  OD490 value, Well 1: 2.5898
  OD490 value, Well 2: 2.5741
  OD490 value, Well 3: 2.5698
Hela cell line; 10μM, third assay
  OD490 value, Mean: 2.6011
  OD490 value, Well 1: 2.5898
  OD490 value, Well 2: 2.6635
  OD490 value, Well 3: 2.5501
Hela cell line; 25μM, first assay
  OD490 value, Mean: 2.2305
  OD490 value, Well 1: 2.2367
  OD490 value, Well 2: 2.1978
  OD490 value, Well 3: 2.2571
Hela cell line; 25μM, second assay
  OD490 value, Mean: 2.5197
  OD490 value, Well 1: 2.5698
  OD490 value, Well 2: 2.5525
  OD490 value, Well 3: 2.4369
Hela cell line; 25μM, third assay
  OD490 value, Mean: 2.6373
  OD490 value, Well 1: 2.6859
  OD490 value, Well 2: 2.5363
  OD490 value, Well 3: 2.6896
Hela cell line; 50μM, first assay
  OD490 value, Mean: 2.5183
  OD490 value, Well 1: 2.3673
  OD490 value, Well 2: 2.6584
  OD490 value, Well 3: 2.5291
Hela cell line; 50μM, second assay
  OD490 value, Mean: 2.5474
  OD490 value, Well 1: 2.4652
  OD490 value, Well 2: 2.5569
  OD490 value, Well 3: 2.6201
Hela cell line; 50μM, third assay
  OD490 value, Mean: 2.5184
  OD490 value, Well 1: 2.4365
  OD490 value, Well 2: 2.5532
  OD490 value, Well 3: 2.5654
Hela cell line; 100μM, first assay
  OD490 value, Mean: 2.3367
  OD490 value, Well 1: 2.4110
  OD490 value, Well 2: 2.1799
  OD490 value, Well 3: 2.4192
Hela cell line; 100μM, second assay
  OD490 value, Mean: 2.4086
  OD490 value, Well 1: 2.3674
  OD490 value, Well 2: 2.4214
  OD490 value, Well 3: 2.4369
Hela cell line; 100μM, third assay
  OD490 value, Mean: 2.3047
  OD490 value, Well 1: 2.1753
  OD490 value, Well 2: 2.3324
  OD490 value, Well 3: 2.4065
Hela cell line
  IC50: > 150 µM
T24 cell line
  IC50: > 150 µM
T24 cell line; 0.5μM
  OD490 Mean: 1.1142
  OD490 Well 1: 1.0855
  OD490 Well 2: 0.8354
  OD490 Well 3: 1.4216
T24 cell line; 1μM
  OD490 Mean: 1.1490
  OD490 Well 1: 1.1324
  OD490 Well 2: 1.1847
  OD490 Well 3: 1.1298
T24 cell line; 10μM
  OD490 Mean: 1.2900
  OD490 Well 1: 1.3295
  OD490 Well 2: 1.2196
  OD490 Well 3: 1.3210
T24 cell line; 25μM
  OD490 Mean: 1.3787
  OD490 Well 1: 1.3758
  OD490 Well 2: 1.4030
  OD490 Well 3: 1.3572
T24 cell line; 50μM
  OD490 Mean: 1.3058
  OD490 Well 1: 1.3832
  OD490 Well 2: 1.3204
  OD490 Well 3: 1.2137
T24 cell line; 100μM
  OD490 Mean: 1.2394
  OD490 Well 1: 1.3664
  OD490 Well 2: 1.1849
  OD490 Well 3: 1.1670
